The record followed here is patent US9624229B2, “Pyrimidine-2-amine compounds and their use as inhibitors of JAK kinases” (Rigel Pharmaceuticals, Inc., priority 2008, dated 2017).

Sequence of Ba/F3 V617F cells (O60674 whole entry V617F): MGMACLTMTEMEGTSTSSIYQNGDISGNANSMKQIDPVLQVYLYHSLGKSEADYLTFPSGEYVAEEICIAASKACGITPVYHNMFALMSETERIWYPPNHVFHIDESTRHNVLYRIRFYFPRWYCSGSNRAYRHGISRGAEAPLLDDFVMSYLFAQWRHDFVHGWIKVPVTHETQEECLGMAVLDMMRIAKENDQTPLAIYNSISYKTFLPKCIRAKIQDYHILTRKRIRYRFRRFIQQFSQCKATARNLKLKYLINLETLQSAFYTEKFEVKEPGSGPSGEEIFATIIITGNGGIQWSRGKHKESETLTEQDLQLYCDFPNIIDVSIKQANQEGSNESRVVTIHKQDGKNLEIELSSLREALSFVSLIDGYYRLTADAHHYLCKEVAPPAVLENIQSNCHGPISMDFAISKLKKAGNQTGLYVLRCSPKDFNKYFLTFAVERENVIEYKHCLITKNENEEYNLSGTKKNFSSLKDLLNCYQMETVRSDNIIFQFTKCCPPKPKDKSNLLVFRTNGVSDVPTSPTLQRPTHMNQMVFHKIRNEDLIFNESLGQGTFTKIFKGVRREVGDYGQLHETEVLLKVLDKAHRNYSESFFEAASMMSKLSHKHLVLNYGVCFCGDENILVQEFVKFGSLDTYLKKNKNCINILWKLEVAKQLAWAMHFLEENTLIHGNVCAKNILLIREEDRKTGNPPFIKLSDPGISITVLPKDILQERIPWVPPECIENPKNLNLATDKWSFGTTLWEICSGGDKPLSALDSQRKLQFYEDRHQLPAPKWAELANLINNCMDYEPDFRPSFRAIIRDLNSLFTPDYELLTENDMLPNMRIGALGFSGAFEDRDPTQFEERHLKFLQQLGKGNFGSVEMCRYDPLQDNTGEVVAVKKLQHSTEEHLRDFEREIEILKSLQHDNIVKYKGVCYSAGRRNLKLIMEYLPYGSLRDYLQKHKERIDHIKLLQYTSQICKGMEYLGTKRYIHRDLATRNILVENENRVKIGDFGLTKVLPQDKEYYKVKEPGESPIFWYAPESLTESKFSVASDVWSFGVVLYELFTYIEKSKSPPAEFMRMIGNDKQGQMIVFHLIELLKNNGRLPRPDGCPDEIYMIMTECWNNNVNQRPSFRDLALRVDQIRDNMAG

One test deals with Ba/F3 V617F cells (Homo sapiens, UniProt O60674, V617F, cells depend on it). Nature of the test: Proliferation assay (Cell Titer-Glo, 72 h) utilizing Ba/F3 V617F cells. The test is classed as cell-based, mouse. Conditions: Ba/F3 V617F cells, proliferation, level of activity given as class symbol, read-out: IC50 (the source's name). In a few lines:
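Ba/F3 V617F cells in RPMI/10% FBS, 1×10^5 cells/mL, exposed in duplicate to 3-fold serial compound dilutions (top 5 mM DMSO stock, diluted 1:250, added as 2× solution in 5% FBS medium) for 72 h at 37 °C. Viability by Cell Titer-Glo luminescence; IC50 reported.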
On the technique in general: Cellular ATP, detected with luciferase, serves as a proxy for viable cell number.
For the molecule `Cc1cc(Nc2nccc(-c3ccc(N4CCOCC4)nc3)n2)ccc1N1C2CCC1CC(N(C)C)C2` (stereo not drawn) [compound 286, 4-(6-(morpholin-4-yl)pyridin-3-yl)-N-(3-methyl-4-(3-(dimethylamino)-8-azabicyclo[3.2.1]octan-8-yl)phenyl)pyrimidin-2-amine], the GI50 was < 1000 nM.
Take `Cc1cc(Nc2nccc(-c3ccc(N4CCOCC4)nc3)n2)ccc1N1CCN2CC[C@H]1C2` [compound 277, 4-(6-(morpholin-4-yl)pyridin-3-yl)-N-(3-methyl-4-((S)-1,4-diazabicyclo[3.2.1]octan-4-yl)phenyl)pyrimidin-2-amine]: the GI50 was < 1000 nM.
Turning to `Cc1cc(Nc2nccc(-c3ccc(NCCC(C)C)nc3)n2)ccc1N1C[C@@H]2C[C@H]1CN2C` [compound 217, 4-(6-(3-methylbutyl)aminopyridin-3-yl)-N-(3-methyl-4-((1S,4S)-5-methyl-2,5-diazabicyclo[2.2.1]heptan-2-yl)phenyl)pyrimidin-2-amine], the GI50 was < 1000 nM.
Same read-out and setting: then `Cc1cc(Nc2nccc(-c3ccc4c(c3)SCC(=O)N4)n2)ccc1N1C[C@@H]2C[C@H]1CN2C` [compound 274, 4-(3-oxo-3,4-dihydro-2H-benzo[b][1,4]thiazin-7-yl)-N-(3-methyl-4-((1S,4S)-5-methyl-2,5-diazabicyclo[2.2.1]heptan-2-yl)phenyl)pyrimidin-2-amine], with < 1000 nM.
Take `Cc1cc(Nc2nccc(-c3ccc(C(F)(F)F)cc3)n2)ccc1N1C[C@@H]2C[C@H]1CN2C` [compound 269, 4-(4-(trifluoromethyl)phenyl)-N-(3-methyl-4-((1S,4S)-5-methyl-2,5-diazabicyclo[2.2.1]heptan-2-yl)phenyl)pyrimidin-2-amine]: the GI50 is < 1000 nM.
For `CN1C[C@@H]2C[C@H]1CN2c1ccc(Nc2nccc(-c3ccc4c(ccn4-c4ccncc4)c3)n2)cc1F` [compound 233, 4-(1-(pyridin-4-yl)-1H-indol-5-yl)-N-(3-fluoro-4-((1S,4S)-5-methyl-2,5-diazabicyclo[2.2.1]heptan-2-yl)phenyl)pyrimidin-2-amine], the GI50 was < 1000 nM.
Regarding `Cc1cc(Nc2nccc(-c3ccc(OC4CCOCC4)nc3)n2)ccc1N1C2CCC1CC(N(C)C)C2` (stereo not drawn) [compound 283, 4-(6-(tetrahydropyran-4-yloxy)pyridin-3-yl)-N-(3-methyl-4-(3-(dimethylamino)-8-azabicyclo[3.2.1]octan-8-yl)phenyl)pyrimidin-2-amine], the GI50 was < 1000 nM.
Same read-out and setting: then `Cc1cc(Nc2nccc(-c3ccc(N4CCCOCC4)nc3)n2)ccc1N1C[C@@H]2C[C@H]1CN2C` [compound 206, 4-(6-(1,4-oxazepan-4-yl)pyridin-3-yl)-N-(3-methyl-4-((1S,4S)-5-methyl-2,5-diazabicyclo[2.2.1]heptan-2-yl)phenyl)pyrimidin-2-amine], with < 1000 nM.
For the molecule `Cc1cc(Nc2nccc(-c3cnc4c(c3)OCCN4C)n2)ccc1N1C[C@@H]2C[C@H]1CN2S(C)(=O)=O` [compound 193, 4-(4-methyl-3,4-dihydro-2H-pyrido[3,2-b][1,4]oxazin-7-yl)-N-(3-methyl-4-((1S,4S)-5-methylsulfonyl-2,5-diazabicyclo[2.2.1]heptan-2-yl)phenyl)pyrimidin-2-amine], the GI50 was < 1000 nM.
Take `Cc1cc(Nc2nccc(-c3ccc(N4CCOCC4)nc3)n2)ccc1N1C[C@@H]2C[C@H]1CO2` [compound 194, 4-(6-(morpholin-4-yl)pyridin-3-yl)-N-(3-methyl-4-((1S,4S)-5-oxa-2-azabicyclo[2.2.1]heptan-2-yl)phenyl)pyrimidin-2-amine]: the GI50 is < 1000 nM.
Regarding `Cc1cc(Nc2nccc(-c3ccc(N4C[C@@H]5C[C@H]4CO5)nc3)n2)ccc1N1CCN2CCC1CC2` [compound 280, 4-(6-((1S,4S)-2-oxa-5-azabicyclo[2.2.1]heptan-5-yl)pyridin-3-yl)-N-(3-methyl-4-(1,4-diazabicyclo[3.2.2]nonan-4-yl)phenyl)pyrimidin-2-amine], the GI50 was < 1000 nM.
As to `Cc1cc(Nc2nccc(-c3ccc(N4CCCOCC4)nc3)n2)ccc1N1C[C@@H]2C[C@H]1CO2` [compound 204, 4-(6-(1,4-oxazepan-4-yl)pyridin-3-yl)-N-(3-methyl-4-((1S,4S)-5-oxa-2-azabicyclo[2.2.1]heptan-2-yl)phenyl)pyrimidin-2-amine], the GI50 is < 1000 nM.

Still in this test, the particulars now being: Ba/F3 V617F cells, proliferation, level of activity to inhibit JAK2, read-out: IC50 (the source's name).
Consider `CC(=O)N1CCN(c2ccc(-c3ccnc(Nc4ccc(N5C[C@@H]6C[C@H]5CN6C)c(F)c4)n3)cn2)CC1` [compound 16, 4-(6-(4-acetylpiperazin-1-yl)pyridin-3-yl)-N-(3-fluoro-4-((1S,4S)-5-methyl-2,5-diazabicyclo[2.2.1]heptan-2-yl)phenyl)pyrimidin-2-amine], for which the GI50 was < 1000 nM.
The same measure, in the same setting: then `CN1C[C@@H]2C[C@H]1CN2c1ccc(Nc2nccc(-c3cc[nH]c3)n2)cc1C(F)(F)F` [compound 171, 4-(1H-pyrrol-3-yl)-N-(3-trifluoromethyl-4-((1S,4S)-5-methyl-2,5-diazabicyclo[2.2.1]heptan-2-yl)phenyl)pyrimidin-2-amine], with < 1000 nM.
Still for that read-out and setting: then `Cc1cc(Nc2nccc(-c3ccc(NCCNS(=O)(=O)C4CC4)nc3)n2)ccc1N1C[C@@H]2C[C@H]1CO2` [compound 100, 4-(6-((2-(cyclopropylsulfonyl)aminoethyl)-amino)pyridin-3-yl)-N-(3-methyl-4-((1S,4S)-5-oxa-2-azabicyclo[2.2.1]heptan-2-yl)phenyl)pyrimidin-2-amine], with < 1000 nM.
As to `Cc1cc(Nc2nccc(-c3cnc(N4CCOCC4)cn3)n2)ccc1N1C[C@@H]2C[C@H]1CN2C` [compound 178, 4-(5-(morpholin-4-yl)pyrazin-2-yl)-N-(3-methyl-4-((1S,4S)-5-methyl-2,5-diazabicyclo[2.2.1]heptan-2-yl)phenyl)pyrimidin-2-amine], the GI50 was in the range of 1000 to 10000 nM.
In the case of `Cc1cc(Nc2nccc(-c3cnc(NC(=O)C4CC4)nc3)n2)ccc1N1C[C@@H]2C[C@H]1CN2C` [compound 44, 4-(2-((cyclopropyl)carbonylamino)-pyrimidin-5-yl)-N-(3-methyl-4-((1S,4S)-5-methyl-2,5-diazabicyclo[2.2.1]heptan-2-yl)phenyl)pyrimidin-2-amine], the GI50 is < 1000 nM.
For the molecule `CCOC(C)c1ccc(-c2ccnc(Nc3ccc(N4C[C@@H]5C[C@H]4CN5C)c(C)c3)n2)cc1` (stereo partly drawn) [compound 181, 4-(4-(1-ethoxyethyl)phenyl)-N-(3-methyl-4-((1S,4S)-5-methyl-2,5-diazabicyclo[2.2.1]heptan-2-yl)phenyl)pyrimidin-2-amine], the GI50 is 1000 to 10000 nM.
Consider `Cc1cc(Nc2nccc(-c3ccc(N4CCOCC4)nc3)n2)ccc1N1CCN2CCC1C2` (stereo not drawn) [compound 120, 4-(6-(morpholin-4-yl)pyridin-3-yl)-N-(3-methyl-4-(1,4-diazabicyclo[3.2.1]octan-4-yl)phenyl)pyrimidin-2-amine], for which the GI50 was < 1000 nM.
`Cc1cc(Nc2nccc(-c3ccc(N4CCOCC4)nc3)n2)ccc1N1CC2(C)CN(C)CC(C)(C1)C2` [compound 75, 4-(6-(morpholin-4-yl)pyridin-3-yl)-N-(3-methyl-4-(1,5,7-trimethyl-3,7-diazabicyclo[3.3.1]nonan-3-yl)phenyl)pyrimidin-2-amine]: the GI50 is < 1000 nM.
Consider `CCOCCCNc1ccc(-c2ccnc(Nc3ccc(N4C[C@@H]5C[C@H]4CN5C)c(C)c3)n2)cn1` [compound 186, 4-(6-(3-ethoxypropyl)aminopyridin-3-yl)-N-(3-methyl-4-((1S,4S)-5-methyl-2,5-diazabicyclo[2.2.1]heptan-2-yl)phenyl)pyrimidin-2-amine], for which the GI50 is < 1000 nM.
In the case of `CN1C[C@@H]2C[C@H]1CN2c1ccc(Nc2nccc(-c3cncc(S(C)(=O)=O)c3)n2)cc1C(F)(F)F` [compound 102, 4-(5-(methyl)sulfonylpyridin-3-yl)-N-(3-trifluoromethyl-4-((1S,4S)-5-methyl-2,5-diazabicyclo[2.2.1]heptan-2-yl)phenyl)pyrimidin-2-amine], the GI50 is < 1000 nM.
On to `Cc1cc(Nc2nccc(-c3ccc(N4CCOCC4)nc3)n2)ccc1N1C[C@@H]2C[C@H]1CN2C` [compound 10, 4-(6-(morpholin-4-yl)pyridin-3-yl)-N-(3-methyl-4-((1S,4S)-5-methyl-2,5-diazabicyclo[2.2.1]heptan-2-yl)phenyl)pyrimidin-2-amine], for which the GI50 was < 1000 nM.
For `CN1C[C@H]2C[C@@H]1CN2c1ccc(Nc2nccc(-c3ccc(N4CCOCC4)nc3)n2)cc1F` [compound 74, 4-(6-(morpholin-4-yl)pyridin-3-yl)-N-(3-fluoro-4-((1R,4R)-5-methyl-2,5-diazabicyclo[2.2.1]heptan-2-yl)phenyl)pyrimidin-2-amine], the GI50 was < 1000 nM.
Regarding `CS(=O)(=O)N1C[C@@H]2C[C@H]1CN2c1ccc(Nc2nccc(-c3ccc(N4CCOCC4)nc3)n2)cc1C#N` [compound 117, 4-(6-(morpholin-4-yl)pyridin-3-yl)-N-(3-cyano-4-((1S,4S)-5-methylsulfonyl-2,5-diazabicyclo[2.2.1]heptan-2-yl)phenyl)pyrimidin-2-amine], the GI50 is < 1000 nM.
Turning to `CN1C[C@@H]2C[C@H]1CN2c1ccc(Nc2nccc(-c3cnc4c(c3)OCCN4)n2)cc1F` [compound 87, 4-(3,4-dihydro-2H-pyrido[3,2-b][1,4]oxazin-7-yl)-N-(3-fluoro-4-((1S,4S)-5-methyl-2,5-diazabicyclo[2.2.1]heptan-2-yl)phenyl)pyrimidin-2-amine], the GI50 is < 1000 nM.

The test is the same for the next values; noted with them: inhibition of JAK2 activity, proliferation of Ba/F3 V617F cells, read-out: IC50 (the source's name).
For `Cc1cc(Nc2nccc(-c3ccc(N4CCOCC4)nc3)n2)cnc1N1C[C@@H]2C[C@H]1CN2C` [compound 66, 4-(6-(morpholin-4-yl)pyridin-3-yl)-N-(5-methyl-6-((1S,4S)-5-methyl-2,5-diazabicyclo[2.2.1]heptan-2-yl)pyridin-3-yl)pyrimidin-2-amine], the GI50 lay in the range of 1000 to 10000 nM.
